Source: ChEMBL document CHEMBL1201862, “PubChem BioAssay data set” (2004)
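Grown in 96-well plates, cells were treated for 48 hours with each compound at five concentrations. Insufficient inhibition: endpoint recorded as highest concentration tested. GI50 is the concentration that inhibits growth by half.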 Calls of active or inactive are those of the source. Rule as the data show it: active = GI50 up to about 1.1 µM and inactive = higher.

Key:
Assay in all cases: NCI tumour cell line growth inhibition, 48 h
[1] = system: OVCAR-4
[2] = system: SF-539
[3] = system: MOLT-4
[4] = system: NCI-H23
[5] = system: K562
[6] = system: HT-29
[7] = system: SNB-19
[8] = system: A549
[9] = system: SNB-75
[10] = system: SN12C
[11] = system: KM12
[12] = system: NCI-H226
[13] = system: UACC-257
[14] = system: EKVX
[15] = system: UO-31
[16] = system: IGROV-1
[17] = system: OVCAR-8
[18] = system: SF-295
[19] = system: SF-268
[20] = system: U-251

Measured: GI50

N#Cc1ccc(-c2nc(C#N)c(N)o2)cc1
inactive: [1] > 10 µM | [2] > 10 µM | [3] > 10 µM | [4] > 10 µM | [5] > 10 µM | [6] > 10 µM | [7] > 10 µM | [8] > 10 µM | [9] > 10 µM | [10] > 10 µM | [11] > 10 µM | [12] > 10 µM | [13] > 10 µM | [14] > 10 µM | [15] > 10 µM | [16] > 10 µM | [17] > 10 µM | [18] > 10 µM | [19] > 10 µM

CSc1cc(-c2cc3ccccc3o2)oc(=O)c1C#N
inactive: [1] > 100 µM | [2] > 100 µM | [3] > 100 µM | [4] > 100 µM | [5] > 100 µM | [6] > 100 µM | [7] 68.9 µM | [8] > 100 µM | [20] > 100 µM | [9] 16.3 µM | [10] > 100 µM | [11] > 100 µM | [13] > 100 µM | [14] > 100 µM | [15] 37.5 µM | [16] 7.4 µM | [17] > 100 µM | [18] 40.9 µM | [19] > 100 µM
active: [12] 0.165 µM

O=C1Sc2ccccc2/C1=N/Nc1ccccc1[N+](=O)[O-]
active: [9] 0.281 µM
inactive: [1] 36.1 µM | [2] 69.5 µM | [3] > 100 µM | [4] > 100 µM | [5] > 100 µM | [6] > 100 µM | [7] > 100 µM | [8] > 100 µM | [20] > 100 µM | [11] > 100 µM | [12] > 100 µM | [13] > 100 µM | [14] > 100 µM | [15] > 100 µM | [16] > 100 µM | [17] 56.4 µM | [18] > 100 µM | [19] 36.6 µM

O=C1C(=O)c2ccccc2C=C1[N+](=O)[O-]
inactive: [1] 31.3 µM | [2] 43.1 µM | [3] 29.3 µM | [4] 34.2 µM | [5] 53.5 µM | [6] > 100 µM | [7] > 100 µM | [8] > 100 µM | [20] 40.1 µM | [9] > 100 µM | [10] 29.4 µM | [11] 70.3 µM | [12] > 100 µM | [13] 25.2 µM | [14] 19.3 µM | [15] > 100 µM | [16] 13.8 µM | [17] 33.7 µM | [18] 97.3 µM | [19] 38.3 µM

C=C1C[C@@H]2C[C@@H](C)CC(O)[C@]2(CCCN)C1O (stereo partly specified)
inactive: [1] > 100 µM | [2] > 100 µM | [3] > 100 µM | [4] > 100 µM | [5] > 100 µM | [6] > 100 µM | [7] > 100 µM | [8] > 100 µM | [20] > 100 µM | [9] > 100 µM | [10] > 100 µM | [11] > 100 µM | [12] > 100 µM | [13] > 100 µM | [14] > 100 µM | [15] > 100 µM | [16] > 100 µM | [17] > 100 µM | [18] > 100 µM | [19] > 100 µM

O=C1CNc2cc(N3CCCCC3)ccc2N1
inactive: [1] > 100 µM | [2] > 100 µM | [3] > 100 µM | [4] > 100 µM | [5] > 100 µM | [6] 8.32 µM | [7] > 100 µM | [8] > 100 µM | [20] > 100 µM | [9] 66.2 µM | [10] > 100 µM | [11] 49.4 µM | [12] 16.3 µM | [13] > 100 µM | [14] 21.2 µM | [15] > 100 µM | [16] 13.9 µM | [17] > 100 µM | [18] > 100 µM

C=C(C)C(=O)O[C@H]1CC2=C[C@@H](C[C@@]3(C)O[C@@H]3[C@H]3OC(=O)C(=C)[C@@H]31)OC2=O [ELEPHANTOPIN]
inactive: [1] 2.61 µM | [2] 3.57 µM | [4] 1.87 µM | [6] 2.48 µM | [7] 13.3 µM | [8] 7.33 µM | [20] 6.49 µM | [9] 7.98 µM | [10] 4.03 µM | [11] 3.31 µM | [12] 10.2 µM | [13] 1.85 µM | [14] 2.08 µM | [15] 6.07 µM | [16] 4.65 µM | [18] 5.57 µM
active: [3] 0.412 µM | [17] 0.505 µM | [19] 0.818 µM
